{
  "source": "ChEMBL document CHEMBL5550222",
  "about": "“Synthesis and Biological Evaluation of Novel Psidium Meroterpenoid Derivatives against Cisplatin-Induced Acute Kidney Injury” (J Med Chem, 2024)",
  "key": {"[1]": {"test": "Cytotoxicity against human HK-2 cells incubated for 72 hrs by MTT assay", "type": "toxicity, cell-based"}, "[2]": {"system": "HK-2", "test": "Protection against cisplatin-induced nephrotoxicity in human HK-2 cells assessed as cell viability at 1 uM preincubated with compound for 2 hrs followed by cisplatin induction and measured after 72 hrs by MTT assay (reference value: 37.37 +/- 1.35%)", "type": "functional", "conditions": "time 74 hrs, read-out: Activity"}, "[3]": {"system": "HK-2", "test": "Protection against cisplatin-induced nephrotoxicity in human HK-2 cells assessed as cell viability at 5 uM preincubated with compound for 2 hrs followed by cisplatin induction and measured after 72 hrs by MTT assay (reference value: 37.37 +/- 1.35%)", "type": "functional", "conditions": "time 74 hrs, read-out: Activity"}, "[4]": {"system": "HK-2", "test": "Protection against cisplatin-induced nephrotoxicity in human HK-2 cells assessed as cell viability at 10 uM preincubated with compound for 2 hrs followed by cisplatin induction and measured after 72 hrs by MTT assay (reference value: 37.37 +/- 1.35%)", "type": "functional", "conditions": "time 74 hrs, read-out: Activity"}},
  "data": [
    {"smiles": "CC12C[C@H]3[C@@H](CC1Cc1c(O)c(C=O)c(O)c(C(=O)c4ccccc4)c1O2)C3(C)C", "note": "(some centres undefined)", "values": [
      {"measurement": "IC50 at 72 h", "setting": "[1]", "value": 7.81, "unit": "µM"}
    ]},
    {"smiles": "COc1c2c(c(CN3CCN(C)CC3)c(OC)c1C(=O)c1ccccc1)OC1(C)CCCC1C2", "note": "(centres undefined)", "values": [
      {"measurement": "IC50 at 72 h", "setting": "[1]", "value": "> 10", "unit": "µM"},
      {"measurement": "viability at 1 µM", "setting": "[2]", "value": 36.4, "unit": "%"},
      {"measurement": "viability at 5 µM", "setting": "[3]", "value": 39.4, "unit": "%"},
      {"measurement": "viability at 10 µM", "setting": "[4]", "value": 38.3, "unit": "%"}
    ]},
    {"smiles": "COc1c2c(c(CN3CCN(C)CC3)c(OC)c1C(=O)c1ccccc1)OC1(C)CCCCC1C2", "note": "(centres undefined)", "values": [
      {"measurement": "IC50 at 72 h", "setting": "[1]", "value": "> 10", "unit": "µM"},
      {"measurement": "viability at 1 µM", "setting": "[2]", "value": 40.2, "unit": "%"},
      {"measurement": "viability at 5 µM", "setting": "[3]", "value": 37.1, "unit": "%"},
      {"measurement": "viability at 10 µM", "setting": "[4]", "value": 37, "unit": "%"}
    ]},
    {"smiles": "COc1c(CO)c2c(c(OC)c1C(=O)c1ccccc1)CC1C[C@@H]3[C@H](CC1(C)O2)C3(C)C", "note": "(some centres undefined)", "values": [
      {"measurement": "IC50 at 72 h", "setting": "[1]", "value": 6.42, "unit": "µM"}
    ]},
    {"smiles": "COc1c2c(c(C(=O)c3ccccc3)c(OC)c1C(=O)O)OC1(C)C[C@H]3[C@@H](CC1C2)C3(C)C", "note": "(some centres undefined)", "values": [
      {"measurement": "IC50 at 72 h", "setting": "[1]", "value": "> 10", "unit": "µM"},
      {"measurement": "viability at 1 µM", "setting": "[2]", "value": 30.2, "unit": "%"},
      {"measurement": "viability at 10 µM", "setting": "[4]", "value": 40, "unit": "%"}
    ]},
    {"smiles": "COc1c(C=O)c2c(c(OC)c1C(=O)c1ccccc1)CC1CCCC1(C)O2", "note": "(centres undefined)", "values": [
      {"measurement": "IC50 at 72 h", "setting": "[1]", "value": "> 10", "unit": "µM"},
      {"measurement": "viability at 1 µM", "setting": "[2]", "value": 37.4, "unit": "%"},
      {"measurement": "viability at 5 µM", "setting": "[3]", "value": 33.4, "unit": "%"},
      {"measurement": "viability at 10 µM", "setting": "[4]", "value": 30.8, "unit": "%"}
    ]},
    {"smiles": "COc1c(C=O)c(OC)c(C(=O)c2ccccc2)c2c1CC(C)C(C)(C)O2", "note": "(centres undefined)", "values": [
      {"measurement": "IC50 at 72 h", "setting": "[1]", "value": "> 10", "unit": "µM"},
      {"measurement": "viability at 1 µM", "setting": "[2]", "value": 26.8, "unit": "%"},
      {"measurement": "viability at 5 µM", "setting": "[3]", "value": 30.4, "unit": "%"},
      {"measurement": "viability at 10 µM", "setting": "[4]", "value": 43.5, "unit": "%"}
    ]},
    {"smiles": "COc1c(CO)c2c(c(OC)c1C(=O)c1ccccc1)CC1CCCCC1(C)O2", "note": "(centres undefined)", "values": [
      {"measurement": "IC50 at 72 h", "setting": "[1]", "value": "> 10", "unit": "µM"},
      {"measurement": "viability at 1 µM", "setting": "[2]", "value": 37.7, "unit": "%"},
      {"measurement": "viability at 5 µM", "setting": "[3]", "value": 41.8, "unit": "%"},
      {"measurement": "viability at 10 µM", "setting": "[4]", "value": 36.9, "unit": "%"}
    ]},
    {"smiles": "COc1c(CO)c(OC)c(C(=O)c2ccccc2)c2c1CC1C[C@@H]3[C@H](CC1(C)O2)C3(C)C", "note": "(some centres undefined)", "values": [
      {"measurement": "IC50 at 72 h", "setting": "[1]", "value": "> 10", "unit": "µM"},
      {"measurement": "viability at 1 µM", "setting": "[2]", "value": 36, "unit": "%"},
      {"measurement": "viability at 5 µM", "setting": "[3]", "value": 43.1, "unit": "%"},
      {"measurement": "viability at 10 µM", "setting": "[4]", "value": 59.2, "unit": "%"}
    ]},
    {"smiles": "COc1c(CN2CCN(C)CC2)c(OC)c(C(=O)c2ccccc2)c2c1CC1C[C@@H]3[C@H](CC1(C)O2)C3(C)C", "note": "(some centres undefined)", "values": [
      {"measurement": "IC50 at 72 h", "setting": "[1]", "value": "> 10", "unit": "µM"},
      {"measurement": "viability at 1 µM", "setting": "[2]", "value": 39.9, "unit": "%"},
      {"measurement": "viability at 5 µM", "setting": "[3]", "value": 40.1, "unit": "%"},
      {"measurement": "viability at 10 µM", "setting": "[4]", "value": 18.5, "unit": "%"}
    ]},
    {"smiles": "COc1c2c(c(CN3CCN(C)CC3)c(OC)c1C(=O)c1ccccc1)OC1(C)C[C@H]3[C@@H](CC1C2)C3(C)C", "note": "(some centres undefined)", "values": [
      {"measurement": "IC50 at 72 h", "setting": "[1]", "value": "> 10", "unit": "µM"},
      {"measurement": "viability at 1 µM", "setting": "[2]", "value": 37.5, "unit": "%"},
      {"measurement": "viability at 5 µM", "setting": "[3]", "value": 41.9, "unit": "%"},
      {"measurement": "viability at 10 µM", "setting": "[4]", "value": 40.8, "unit": "%"}
    ]},
    {"smiles": "CC1Cc2c(O)c(C=O)c(O)c(C(=O)c3ccccc3)c2OC1(C)C", "note": "(centres undefined)", "values": [
      {"measurement": "IC50 at 72 h", "setting": "[1]", "value": "> 10", "unit": "µM"},
      {"measurement": "viability at 1 µM", "setting": "[2]", "value": 39.9, "unit": "%"},
      {"measurement": "viability at 5 µM", "setting": "[3]", "value": 43.6, "unit": "%"},
      {"measurement": "viability at 10 µM", "setting": "[4]", "value": 47, "unit": "%"}
    ]},
    {"smiles": "COc1c(C=O)c2c(c(OC)c1C(=O)c1ccccc1)CC1C[C@@H]3[C@H](CC1(C)O2)C3(C)C", "note": "(some centres undefined)", "values": [
      {"measurement": "IC50 at 72 h", "setting": "[1]", "value": "> 10", "unit": "µM"},
      {"measurement": "viability at 1 µM", "setting": "[2]", "value": 30.1, "unit": "%"},
      {"measurement": "viability at 5 µM", "setting": "[3]", "value": 30.8, "unit": "%"},
      {"measurement": "viability at 10 µM", "setting": "[4]", "value": 35.5, "unit": "%"}
    ]},
    {"smiles": "COc1c(C=O)c2c(c(OC)c1C(=O)c1ccccc1)CC1CCCCC1(C)O2", "note": "(centres undefined)", "values": [
      {"measurement": "IC50 at 72 h", "setting": "[1]", "value": "> 10", "unit": "µM"},
      {"measurement": "viability at 1 µM", "setting": "[2]", "value": 34.1, "unit": "%"},
      {"measurement": "viability at 5 µM", "setting": "[3]", "value": 35.2, "unit": "%"},
      {"measurement": "viability at 10 µM", "setting": "[4]", "value": 44.9, "unit": "%"}
    ]},
    {"smiles": "CC12CCCCC1Cc1c(O)c(C(=O)c3ccccc3)c(O)c(C=O)c1O2", "note": "(centres undefined)", "values": [
      {"measurement": "IC50 at 72 h", "setting": "[1]", "value": "> 10", "unit": "µM"},
      {"measurement": "viability at 1 µM", "setting": "[2]", "value": 34.8, "unit": "%"},
      {"measurement": "viability at 5 µM", "setting": "[3]", "value": 39.3, "unit": "%"},
      {"measurement": "viability at 10 µM", "setting": "[4]", "value": 38, "unit": "%"}
    ]},
    {"smiles": "CC1Cc2c(O)c(C(=O)c3ccccc3)c(O)c(C=O)c2OC1(C)C", "note": "(centres undefined)", "values": [
      {"measurement": "IC50 at 72 h", "setting": "[1]", "value": "> 10", "unit": "µM"},
      {"measurement": "viability at 1 µM", "setting": "[2]", "value": 37.7, "unit": "%"},
      {"measurement": "viability at 5 µM", "setting": "[3]", "value": 33.2, "unit": "%"},
      {"measurement": "viability at 10 µM", "setting": "[4]", "value": 28.1, "unit": "%"}
    ]},
    {"smiles": "COc1c2c(c(C(=O)O)c(OC)c1C(=O)c1ccccc1)OC(C)(C)C(C)C2", "note": "(centres undefined)", "values": [
      {"measurement": "IC50 at 72 h", "setting": "[1]", "value": "> 10", "unit": "µM"},
      {"measurement": "viability at 1 µM", "setting": "[2]", "value": 37.8, "unit": "%"},
      {"measurement": "viability at 5 µM", "setting": "[3]", "value": 28.9, "unit": "%"},
      {"measurement": "viability at 10 µM", "setting": "[4]", "value": 32, "unit": "%"}
    ]},
    {"smiles": "COc1c2c(c(C(=O)O)c(OC)c1C(=O)c1ccccc1)OC1(C)CCCC1C2", "note": "(centres undefined)", "values": [
      {"measurement": "IC50 at 72 h", "setting": "[1]", "value": "> 10", "unit": "µM"},
      {"measurement": "viability at 1 µM", "setting": "[2]", "value": 32.3, "unit": "%"},
      {"measurement": "viability at 5 µM", "setting": "[3]", "value": 29.6, "unit": "%"},
      {"measurement": "viability at 10 µM", "setting": "[4]", "value": 32.6, "unit": "%"}
    ]},
    {"smiles": "COc1c(CO)c(OC)c(C(=O)c2ccccc2)c2c1CC1CCCCC1(C)O2", "note": "(centres undefined)", "values": [
      {"measurement": "IC50 at 72 h", "setting": "[1]", "value": "> 10", "unit": "µM"},
      {"measurement": "viability at 1 µM", "setting": "[2]", "value": 38.8, "unit": "%"},
      {"measurement": "viability at 5 µM", "setting": "[3]", "value": 44.3, "unit": "%"},
      {"measurement": "viability at 10 µM", "setting": "[4]", "value": 44.6, "unit": "%"}
    ]},
    {"smiles": "COc1c(CO)c2c(c(OC)c1C(=O)c1ccccc1)CC1CCCC1(C)O2", "note": "(centres undefined)", "values": [
      {"measurement": "IC50 at 72 h", "setting": "[1]", "value": "> 10", "unit": "µM"},
      {"measurement": "viability at 1 µM", "setting": "[2]", "value": 34.9, "unit": "%"},
      {"measurement": "viability at 5 µM", "setting": "[3]", "value": 37.5, "unit": "%"},
      {"measurement": "viability at 10 µM", "setting": "[4]", "value": 45.4, "unit": "%"}
    ]},
    {"smiles": "CC12C[C@H]3[C@@H](CC1Cc1c(O)c(C(=O)c4ccccc4)c(O)c(C=O)c1O2)C3(C)C", "note": "(some centres undefined)", "values": [
      {"measurement": "IC50 at 72 h", "setting": "[1]", "value": 9.31, "unit": "µM"}
    ]}
  ]
}
